Earlier results on two compounds are cited in patent US20200390965A1, “TAILORED DOSE OF CONTRAST AGENT” (GE HEALTHCARE AS, priority 2017, published 2020).

SMILES strings stand for the structures.

For the series the following is noted: powder form; aggregates dissolve very slowly.

Turning to `CC(=O)N(CC(O)CN(C(C)=O)c1c(I)c(C(=O)NCC(O)CO)c(I)c(C(=O)NCC(O)CO)c1I)c1c(I)c(C(=O)NCC(O)CO)c(I)c(C(=O)NCC(O)CO)c1I` (centres unmarked) [iodixanol], the solubility in water result was “highly soluble in water”. Take `CC(=O)N(CC(O)CO)c1c(I)c(C(=O)NCC(O)CO)c(I)c(C(=O)NCC(O)CO)c1I` (centres unmarked) [iohexol]: the solubility in water entry is given as “highly soluble in water”.
